Measured values from PubChem BioAssay (NCI).
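Each compound was tested at five concentrations against cells in 96-well plates for 48 hours. Definition used: TGI = concentration required for complete inhibition of growth.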

Columns and labels:
Assay in all cases: growth of human tumour cells (NCI), 48 h
OVCAR-4 ovarian = tested on: OVCAR-4 ovarian
EKVX NSCLC = tested on: EKVX NSCLC
KM12 colon = tested on: KM12 colon
HOP-92 NSCLC = tested on: HOP-92 NSCLC
RPMI-8226 leukemia = tested on: RPMI-8226 leukemia
ACHN renal = tested on: ACHN renal
UACC-62 melanoma = tested on: UACC-62 melanoma
OVCAR-8 ovarian = tested on: OVCAR-8 ovarian
NCI-H226 lung = tested on: NCI-H226 lung
TK-10 renal = tested on: TK-10 renal
SK-MEL-28 melanoma = tested on: SK-MEL-28 melanoma
NCI-H23 lung = tested on: NCI-H23 lung
MDA-MB-231 breast = tested on: MDA-MB-231 breast
HCT-15 colon = tested on: HCT-15 colon
HL-60(TB) leukemia = tested on: HL-60(TB) leukemia
SNB-19 CNS = tested on: SNB-19 CNS
HCC-2998 colon = tested on: HCC-2998 colon
SNB-75 CNS = tested on: SNB-75 CNS
SF-268 CNS = tested on: SF-268 CNS
SR leukemia = tested on: SR leukemia
SN12C renal = tested on: SN12C renal
MDA-MB-435 = tested on: MDA-MB-435
A498 renal = tested on: A498 renal
UACC-257 melanoma = tested on: UACC-257 melanoma
MOLT-4 leukemia = tested on: MOLT-4 leukemia
CCRF-CEM leukemia = tested on: CCRF-CEM leukemia
UO-31 renal = tested on: UO-31 renal
NCI/ADR-RES ovarian = tested on: NCI/ADR-RES ovarian
CAKI-1 renal = tested on: CAKI-1 renal
U251 CNS = tested on: U251 CNS
NCI-H460 lung = tested on: NCI-H460 lung
MDA-N = tested on: MDA-N
BT-549 breast = tested on: BT-549 breast
OVCAR-5 ovarian = tested on: OVCAR-5 ovarian
COLO 205 colon = tested on: COLO 205 colon
SW-620 colon = tested on: SW-620 colon
SK-MEL-2 melanoma = tested on: SK-MEL-2 melanoma
NCI-H522 lung = tested on: NCI-H522 lung
T-47D breast = tested on: T-47D breast
OVCAR-3 ovarian = tested on: OVCAR-3 ovarian
DU-145 prostate = tested on: DU-145 prostate
PC-3 prostate = tested on: PC-3 prostate
MCF7 breast = tested on: MCF7 breast
SF-295 CNS = tested on: SF-295 CNS
SK-OV-3 ovarian = tested on: SK-OV-3 ovarian
M14 melanoma = tested on: M14 melanoma
RXF 393 renal = tested on: RXF 393 renal
LOX IMVI melanoma = tested on: LOX IMVI melanoma
HOP-62 NSCLC = tested on: HOP-62 NSCLC
786-0 renal = tested on: 786-0 renal

Measured: TGI

CC1(C)/C(=N\O)C2(OS(=O)(=O)C(F)(F)F)CCC1C2 (centres undefined)
not listed: OVCAR-5 ovarian | COLO 205 colon | SW-620 colon | SK-MEL-2 melanoma | NCI-H522 lung | T-47D breast | OVCAR-3 ovarian | DU-145 prostate | PC-3 prostate | MCF7 breast | SF-295 CNS | SK-OV-3 ovarian | M14 melanoma | RXF 393 renal | LOX IMVI melanoma | HOP-62 NSCLC | 786-0 renal
> 100000 nM: all other assays above

COc1cc(OCCN(C)C)c2[nH]c(C(=O)N3CC(CCl)c4c3cc(N)c3ccccc43)cc2c1 (centres undefined)
1790 nM: T-47D breast
11 nM: MCF7 breast
31.1 nM: NCI-H226 lung
379 nM: BT-549 breast
20 nM: SNB-75 CNS
1080 nM: DU-145 prostate
17 nM: SF-295 CNS
736 nM: PC-3 prostate
52.1 nM: EKVX NSCLC
213 nM: OVCAR-5 ovarian
< 10 nM: HOP-92 NSCLC | UACC-62 melanoma | SK-MEL-2 melanoma | NCI-H522 lung | NCI-H23 lung | HCC-2998 colon | OVCAR-3 ovarian | A498 renal | M14 melanoma | RXF 393 renal | LOX IMVI melanoma | HOP-62 NSCLC | 786-0 renal | MDA-N
1170 nM: MDA-MB-231 breast
10.2 nM: COLO 205 colon
49.8 nM: NCI/ADR-RES ovarian
> 100000 nM: CCRF-CEM leukemia
1320 nM: HCT-15 colon | SK-OV-3 ovarian
265 nM: SW-620 colon
